Assay results taken from patent publication US10392404B2, “Compounds and compositions as kinase inhibitors” (NOVARTIS AG, priority 2014, dated 2019).

What was measured:
C-RAF = target: T1, C-RAF (Homo sapiens, UniProt P04049, Y340E/Y341E); test: In vitro Raf activity determination (Alpha Screen, biotinylated kinase-dead MEK1 substrate), C-Raf; format: biochemical; settings: c-Raf approximately 4 nM; ATP 1 μM; pre-incubation 60 minutes; reaction 1 hour at room temperature
T1 construct: His tag (implied by nickel chromatography) (cleaved yes); StrepII tag (cleaved yes); made in house; host or cells: Sf9 insect cells (baculovirus), CRAF and h14-3-3 zeta co-expressed; MEK1 substrate from E. coli
T1 sequence (P04049 whole entry Y340E/Y341E): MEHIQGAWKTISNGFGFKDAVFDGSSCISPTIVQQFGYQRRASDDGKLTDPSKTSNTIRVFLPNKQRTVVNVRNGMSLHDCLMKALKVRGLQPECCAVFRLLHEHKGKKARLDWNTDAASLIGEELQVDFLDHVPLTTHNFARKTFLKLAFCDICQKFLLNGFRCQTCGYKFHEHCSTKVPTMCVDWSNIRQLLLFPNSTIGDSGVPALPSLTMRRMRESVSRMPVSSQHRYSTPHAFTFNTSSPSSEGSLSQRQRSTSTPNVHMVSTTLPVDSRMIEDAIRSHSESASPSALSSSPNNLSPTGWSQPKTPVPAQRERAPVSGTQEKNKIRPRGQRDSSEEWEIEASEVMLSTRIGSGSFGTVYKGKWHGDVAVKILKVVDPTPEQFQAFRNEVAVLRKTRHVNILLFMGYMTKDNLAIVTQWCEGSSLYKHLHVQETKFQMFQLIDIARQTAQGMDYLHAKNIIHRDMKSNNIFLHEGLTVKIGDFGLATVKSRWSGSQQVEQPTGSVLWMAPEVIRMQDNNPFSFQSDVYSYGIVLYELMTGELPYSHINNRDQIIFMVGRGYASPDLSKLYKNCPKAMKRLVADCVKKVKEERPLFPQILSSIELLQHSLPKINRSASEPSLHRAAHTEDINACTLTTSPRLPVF
T1 sequence (P63104 whole entry partner): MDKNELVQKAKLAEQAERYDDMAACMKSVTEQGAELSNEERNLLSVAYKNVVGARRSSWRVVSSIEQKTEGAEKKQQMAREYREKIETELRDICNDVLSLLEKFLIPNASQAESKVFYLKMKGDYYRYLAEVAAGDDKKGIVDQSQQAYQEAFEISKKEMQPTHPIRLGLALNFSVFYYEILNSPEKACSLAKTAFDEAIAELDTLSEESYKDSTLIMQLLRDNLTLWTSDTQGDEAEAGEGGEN
Description: CRAF cDNA was subcloned as full length protein, with Y340E and Y341E activating mutations, into a baculovirus expression vector for Sf9 insect cell expression. h14-3-3 zeta cDNA was subcloned into a baculovirus expression vector for SF9 insect cell expression. Sf9 cells co-expressing both proteins were lysed and subjected to immobilized nickel chromatography and eluted with Imidazole. A second column (StrepII binding column) was used and eluted with desthiobiotin. Protein Tags were removed using Prescission enzyme and the protein was further purified using a flowthrough step to remove tags.
C-Raf TR refers to a truncated C-Raf protein, a Δ1-324 deletion mutant. C-Raf FL refers to the full-length C-Raf protein.
(§1) Full length MEK1 with an inactivating K97R ATP binding site mutation is utilized as a RAF substrate. The MEK1 cDNA was subcloned with an N-terminal (his)6 tag into a vector for E. Coli expression. The MEK1 substrate was purified from E. Coli lysate by nickel affinity chromatography followed by anion exchange. The final MEK1 preparation was biotinylated (Pierce EZ-Link Sulfo-NHS-LC-Biotin) and concentrated.
(§2) Assay Materials: Assay buffer is 50 mM Tris, pH 7.5, 15 mM MgCl2, 0.01% Bovine Serum Albumin (BSA) and 1 mM dithiothreitol (DTT); Stop buffer is 60 mM ethylenediaminetetraacetic acid (EDTA) and 0.01% Tween® 20; b-Raf (V600E), active; biotinylated Mek, kinase dead; Alpha Screen detection kit (available from PerkinElmer™, #6760617R); Anti phospho-MEK1/2 (available from Cell Signaling Technology, Inc. #9121); 384 well low volume assay plates (White Greiner® plates).
(§3) Assay conditions: b-Raf (V600E) approximately 4 pM; c-Raf approximately 4 nM; biotinylated Mek, kinase dead approximately 10 nM; ATP 10 μM for BRAF (V600E) and 1 μM for CRAF; Pre-incubation time with compounds 60 minutes at room temperature; Reaction time 1 or 3 hours at room temperature.
(§4) Assay protocol: Raf and biotinylated Mek (kinase dead) were combined at 2× final concentrations in assay buffer (50 mM Tris, pH 7.5, 15 mM MgCl2, 0.01% BSA and 1 mM DTT) and dispensed […] per well in assay plates (Greiner white 384 well assay plates #781207) containing […] of 40× of a Raf kinase inhibitor test compound diluted in 100% DMSO. The plate was incubated for 60 minutes at room temperature. The Raf kinase activity reaction was started by the addition of […] per well of 2×ATP diluted in assay buffer. After 3 hours (b-Raf(V600E)) or 1 hour (c-Raf). The reactions were stopped and the phosphorylated product was measured using a rabbit anti-p-MEK (Cell Signaling, #9121) antibody and the Alpha Screen IgG (ProteinA) detection Kit (PerkinElmer #6760617R), by the addition of […] to the well of a mixture of the antibody (1:2000 dilution) and detection beads (1:2000 dilution of both beads) in Stop/bead buffer (25 mM EDTA, 50 mM Tris, pH 7.5, 0.01% Tween20). The additions were carried out under dark conditions to protect the detection beads from light. A lid was placed on top of the plate and incubated for 1 hour at room temperature, after which the luminescence was read on a PerkinElmer Envision instrument. The concentration of each compound for 50% inhibition (IC50) was calculated by non-linear regression using XL Fit data analysis software.

b-Raf (V600E) = target: T2, b-Raf (V600E) (Homo sapiens, UniProt P15056, V600E); test: In vitro Raf activity determination (Alpha Screen, biotinylated kinase-dead MEK1 substrate), B-Raf; format: biochemical; settings: b-Raf (V600E) approximately 4 pM; ATP 10 μM; pre-incubation 60 minutes; reaction 3 hours at room temperature
T2 construct: made in house
T2 sequence (P15056 whole entry V600E): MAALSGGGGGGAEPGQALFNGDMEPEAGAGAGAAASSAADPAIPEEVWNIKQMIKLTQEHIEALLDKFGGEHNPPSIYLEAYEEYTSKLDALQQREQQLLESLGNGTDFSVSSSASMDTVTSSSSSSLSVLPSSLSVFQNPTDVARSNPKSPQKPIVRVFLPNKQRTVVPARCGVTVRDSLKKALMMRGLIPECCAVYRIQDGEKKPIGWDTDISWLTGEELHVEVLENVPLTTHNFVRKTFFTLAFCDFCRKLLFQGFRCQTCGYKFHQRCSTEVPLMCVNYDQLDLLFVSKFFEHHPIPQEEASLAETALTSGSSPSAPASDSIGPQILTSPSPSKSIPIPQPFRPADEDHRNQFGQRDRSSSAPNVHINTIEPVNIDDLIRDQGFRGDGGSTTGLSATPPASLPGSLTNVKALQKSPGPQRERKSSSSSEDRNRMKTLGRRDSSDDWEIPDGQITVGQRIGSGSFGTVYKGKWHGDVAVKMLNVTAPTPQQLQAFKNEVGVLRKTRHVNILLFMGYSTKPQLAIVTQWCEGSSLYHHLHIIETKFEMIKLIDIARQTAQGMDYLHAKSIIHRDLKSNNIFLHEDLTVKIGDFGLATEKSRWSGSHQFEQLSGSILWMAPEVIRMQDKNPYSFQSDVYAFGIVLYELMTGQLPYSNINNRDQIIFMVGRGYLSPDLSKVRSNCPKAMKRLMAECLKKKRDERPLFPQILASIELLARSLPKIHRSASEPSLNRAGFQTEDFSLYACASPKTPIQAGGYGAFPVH
Protocol: as §1, §2, §3, §4

Row | SMILES | IC50 (C-RAF) | IC50 (b-Raf (V600E))
1 | Cc1ncc(NC(=O)c2ccnc(C(C)(C)C#N)c2)cc1-c1cnc(NC2CCOC2)c(C#N)c1 (stereo in doubt) [Example 78a, (S)-N-(5′-cyano-2-methyl-6′-((tetrahydrofuran-3-yl)amino)-[3,3′-bipyridin]-5-yl)-2-(2-cyanopropan-2-yl)isonicotinamide] | 3.16 nM | 12.3 nM
2 | Cc1ncc(NC(=O)c2ccnc(C(C)(C)C#N)c2)cc1-c1cnc(NC2CCOC2)c(C#N)c1 (stereo in doubt) [Example 78b, (R)-N-(5′-cyano-2-methyl-6′-((tetrahydrofuran-3-yl)amino)-[3,3′-bipyridin]-5-yl)-2-(2-cyanopropan-2-yl)isonicotinamide] | 2.41 nM | 10.3 nM
3 | Cc1ccc(NC(=O)c2ccnc(C(C)(C)C#N)c2)cc1-c1cnc(N)c(C#N)c1 [Example 2, N-(3-(6-amino-5-cyanopyridin-3-yl)-4-methylphenyl)-2-(2-cyanopropan-2-yl) isonicotinamide] | 0.661 nM | 3.07 nM
4 | Cc1ccc(C(=O)Nc2cccc(C(F)(F)F)c2)cc1-c1cnc(N)c(C#N)c1 [Example 3, 3-(6-amino-5-cyanopyridin-3-yl)-4-methyl-N-(3-(trifluoromethyl)phenyl)benzamide] | 0.125 nM | 0.991 nM
5 | Cc1ncc(NC(=O)c2cccc(C(F)(F)F)c2)cc1-c1cnc(N)c(C#N)c1 [Example 4, N-(6′-amino-5′-cyano-2-methyl-[3,3′-bipyridin]-5-yl)-3-(trifluoromethyl) benzamide] | 0.211 nM | 1.63 nM
6 | CNc1ncc(-c2cc(NC(=O)c3cccc(C(F)(F)F)c3)ccc2C)cc1C#N [Example 5, N-(3-(5-cyano-6-(methylamino)pyridin-3-yl)-4-methylphenyl)-3-(trifluoromethyl) benzamide] | 0.18 nM | 1.33 nM
7 | CNc1ncc(-c2cc(NC(=O)c3ccnc(C(C)(C)C#N)c3)ccc2C)cc1C#N [Example 6, N-(3-(5-cyano-6-(methylamino)pyridin-3-yl)-4-methylphenyl)-2-(2-cyanopropan-2-yl)isonicotinamide] | 0.379 nM | 2.18 nM
8 | CNc1ncc(-c2cc(C(=O)Nc3cccc(C(F)(F)F)c3)ccc2C)cc1C#N [Example 7, 3-(5-cyano-6-(methylamino)pyridin-3-yl)-4-methyl-N-(3-(trifluoromethyl)phenyl) benzamide] | 0.566 nM | 4.44 nM
9 | CNc1ncc(-c2cc(NC(=O)c3cccc(C(F)(F)F)c3)cnc2C)cc1C#N [Example 8, N-(5′-cyano-2-methyl-6′-(methylamino)-[3,3′-bipyridin]-5-yl)-3-(trifluoromethyl) benzamide] | 0.25 nM | 1.98 nM
10 | Cc1ccc(NC(=O)c2ccnc(C(C)(C)C#N)c2)cc1-c1cnc(N)c(C#N)c1C [Example 9, N-(3-(6-amino-5-cyano-4-methylpyridin-3-yl)-4-methylphenyl)-2-(2-cyanopropan-2-yl)isonicotinamide] | 6.55 nM | 60.8 nM
11 | Cc1ccc(C(=O)Nc2cccc(C(F)(F)F)c2)cc1-c1cnc(N)c(C#N)c1C [Example 11, 3-(6-amino-5-cyano-4-methylpyridin-3-yl)-4-methyl-N-(3-(trifluoromethyl)phenyl)benzamide] | 0.606 nM | 9.79 nM
12 | Cc1ccc(NC(=O)c2ccnc(C(C)(C)C#N)c2)cc1-c1cc(C#N)cnc1N [Example 12, N-(3-(2-amino-5-cyanopyridin-3-yl)-4-methylphenyl)-2-(2-cyanopropan-2-yl)isonicotinamide] | 1.81 nM | 27.8 nM
13 | Cc1ccc(NC(=O)c2cccc(C(F)(F)F)c2)cc1-c1cc(C#N)cnc1N [Example 13, N-(3-(2-amino-5-cyanopyridin-3-yl)-4-methylphenyl)-3-(trifluoromethyl) benzamide] | 0.284 nM | 5.61 nM
14 | Cc1ccc(NC(=O)c2cccc(C(F)(F)F)c2)cc1-c1cc(C#N)c[nH]c1=O [Example 14, N-(3-(5-cyano-2-oxo-1,2-dihydropyridin-3-yl)-4-methylphenyl)-3-(trifluoromethyl) benzamide] | 0.614 nM | 11.2 nM
15 | Cc1ccc(NC(=O)c2cccc(C(F)(F)F)c2)cc1-c1cnc(N(C)C)c(C#N)c1 [Example 15, N-(3-(5-cyano-6-(dimethylamino)pyridin-3-yl)-4-methylphenyl)-3-(trifluoromethyl) benzamide] | 0.0734 nM | 0.566 nM
16 | Cc1ccc(NC(=O)c2ccnc(C(C)(C)C#N)c2)cc1-c1cnc(N(C)C)c(C#N)c1 [Example 16, N-(3-(5-cyano-6-(dimethylamino)pyridin-3-yl)-4-methylphenyl)-2-(2-cyanopropan-2-yl)isonicotinamide] | 0.216 nM | 1.53 nM
17 | Cc1ccc(NC(=O)c2cccc(C(F)(F)F)c2)cc1-c1cnc(NC2CC2)c(C#N)c1 [Example 17, N-(3-(5-cyano-6-(cyclopropylamino)pyridin-3-yl)-4-methylphenyl)-3-(trifluoromethyl) benzamide] | 0.323 nM | 2.28 nM
18 | Cc1ccc(NC(=O)c2cccc(C(F)(F)F)c2)cc1-c1cnc(NC(C)C)c(C#N)c1 [Example 18, N-(3-(5-cyano-6-(isopropylamino)pyridin-3-yl)-4-methylphenyl)-3-(trifluoromethyl) benzamide] | 0.386 nM | 3.44 nM
19 | Cc1ccc(NC(=O)c2ccnc(C(C)(C)C#N)c2)cc1-c1cnc(NC2CC2)c(C#N)c1 [Example 19, N-(3-(5-cyano-6-(cyclopropylamino)pyridin-3-yl)-4-methylphenyl)-2-(2-cyanopropan-2-yl)isonicotinamide] | 0.397 nM | 2.15 nM
20 | Cc1ccc(NC(=O)c2ccnc(C(C)(C)C#N)c2)cc1-c1cnc(NC(C)C)c(C#N)c1 [Example 20, N-(3-(5-cyano-6-(isopropylamino)pyridin-3-yl)-4-methylphenyl)-2-(2-cyanopropan-2-yl)isonicotinamide] | 0.467 nM | 1.67 nM
21 | Cc1ccc(NC(=O)c2ccnc(C(F)(F)F)c2)cc1-c1cnc(NC2CC2)c(C#N)c1 [Example 21, N-(3-(5-cyano-6-(cyclopropylamino)pyridin-3-yl)-4-methylphenyl)-2-(trifluoromethyl) isonicotinamide] | 0.103 nM | 0.575 nM
22 | Cc1ccc(NC(=O)c2ccnc(C(F)(F)F)c2)cc1-c1cnc(NC(C)C)c(C#N)c1 [Example 22, N-(3-(5-cyano-6-(isopropylamino)pyridin-3-yl)-4-methylphenyl)-2-(trifluoromethyl) isonicotinamide] | 0.314 nM | 1.25 nM
23 | CCNc1ncc(-c2cc(NC(=O)c3cccc(C(F)(F)F)c3)ccc2C)cc1C#N [Example 23, N-(3-(5-cyano-6-(ethylamino)pyridin-3-yl)-4-methylphenyl)-3-(trifluoromethyl) benzamide] | 0.247 nM | 1.46 nM
24 | CCNc1ncc(-c2cc(NC(=O)c3ccnc(C(F)(F)F)c3)ccc2C)cc1C#N [Example 24, N-(3-(5-cyano-6-(ethylamino)pyridin-3-yl)-4-methylphenyl)-2-(trifluoromethyl) isonicotinamide] | 0.123 nM | 0.805 nM
25 | Cc1cc(C(=O)Nc2cnc(C)c(-c3cnc(N(C)C)c(C#N)c3)c2)n(C)n1 [Example 265, N-(5′-cyano-6′-(dimethylamino)-2-methyl-[3,3′-bipyridin]-5-yl)-1,3-dimethyl-1H-pyrazole-5-carboxamide] | 312 nM | –
